Reference: the supplement of paper PMC12532568
Structures can show the parent of a compound that is named as a salt.

Tested on: Danio rerio larvae Tg(actc1b:ZsGreen-LC3), 3 dpf
Test: LC3 puncta relative area vs vehicle (mean) (log2 fold change); higher = more autophagy
Details: treatment time 16 h
Procedure: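 Transgenic ZsGreen-LC3 zebrafish larvae (2 dpf) were treated for 16 h with natural bioactives at 10, 50, 100 or 250 µM. Skeletal-muscle LC3 puncta area was measured by high-content imaging with or without 4 h of 100 mM NH4Cl, normalised to vehicle, and reported as the mean log2 fold change over 4–21 larvae.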

| Structure (SMILES) | LC3 puncta (log2) (NH4Cl: + NH4Cl, 10 µM) | LC3 puncta (log2) (NH4Cl: + NH4Cl, 50 µM) | LC3 puncta (log2) (NH4Cl: + NH4Cl, 100 µM) | LC3 puncta (log2) (NH4Cl: + NH4Cl, 250 µM) | LC3 puncta (log2) (NH4Cl: - NH4Cl, 10 µM) | LC3 puncta (log2) (NH4Cl: - NH4Cl, 50 µM) | LC3 puncta (log2) (NH4Cl: - NH4Cl, 100 µM) | LC3 puncta (log2) (NH4Cl: - NH4Cl, 250 µM) |
| --- | --- | --- | --- | --- | --- | --- | --- | --- |
| CC(O)CC(=O)O (racemic) [DL-ß-Hydroxybutyric acid sodium salt] | -0.181 | 0.231 | 0.389 | 0.588 | 0.151 | -0.288 | 0.0785 | 0.0274 |
| O=C(O)C[C@H](O)C(=O)O [(2S)-2-hydroxybutanedioic acid] | 0.631 | 0.508 | 0.375 |  | -0.158 | 0.038 | 0.417 | 0.262 |
| CC(=O)C(C)=O [Biacetyl] | 0.347 | 0.581 | 0.946 | 0.981 | 0.0128 | 0.343 | 0.699 | 0.218 |
| C[C@@H](O)CCO [(R)-1,3-Butylene Glycol] | 0.22 | -0.0174 | 0.179 | 0.0875 | 0.0281 | -0.261 | -0.294 | -0.184 |
| C[N+](C)(C)CCO.C[N+](C)(C)CCO.C[N+](C)(C)CCO.O=P([O-])([O-])[O-] [Tricholine phosphate] | 0.7 | 0.208 | -0.172 | 0.38 | 0.0959 | 0.0907 | 0.25 | -0.277 |
| CC1=C(/C=C/C(C)=C/C=C/C(C)=C/C=C/C=C(C)/C=C/C=C(C)/C=C/C2=C(C)CCCC2(C)C)C(C)(C)CCC1 [beta-Carotene] | 0.44 | 0.208 | 0.299 | 1.2 | 0.227 | -0.273 | 0.207 | 0.305 |
| C/C1=C2/[N-]C([C@H](CC(N)=O)[C@@]2(C)CCC(=O)NCC(C)OP(=O)([O-])OC2C(O)[C@@H](n3cnc4cc(C)c(C)cc43)O[C@@H]2CO)[C@]2(C)N=C(/C(C)=C3N=C(/C=C4N=C1[C@@H](CCC(N)=O)C\4(C)C)[C@@H](CCC(N)=O)[C@]\3(C)CC(N)=O)[C@@H](CCC(N)=O)[C@]2(C)CC(N)=O.[CH2-]C1O[C@H](n2cnc3c(N)ncnc32)[C@@H](O)[C@H]1O.[Co+3] (stereo not given in full) [Coenzyme B12] | 0.47 | 0.446 | 0.394 | 0.833 | 0.178 | -0.299 | 0.292 | 0.281 |
